Results taken from ChEMBL document CHEMBL3600343, “Design, Synthesis, and Biological Evaluation of a Series of Anthracene-9,10-dione Dioxime β-Catenin Pathway Inhibitors” (J Med Chem, 2015).
Converted amounts (≈) assume the structure as drawn. One block for each molecule: values may come before it. The source made the active and inactive calls. The rule behind the calls is not given here.

Experiments:
[1] = Inhibition of Wnt/beta-catenin transcriptional activity in human HT-29 cells assessed as depletion of beta-catenin level by TCF luciferase promoter reporter assay; assay type: cell-based; details: Homo sapiens, HT-29
HT-29 = test: Growth inhibition of human HT-29 cells after 72 hrs by APH assay; assay type: functional, cell-based; details: HT-29, 72 h
[2] = Inhibition of Wnt/beta-catenin (unknown origin); design: species or system Homo sapiens
[3] = molecular target: Signal transducer and activator of transcription 3 (Homo sapiens) (UniProt P40763); test: Inhibition of STAT3 in human STF cells at 1 uM after 24 hrs by TCF luciferase promoter reporter assay; assay type: cell-based
[4] = Plasma concentration in mouse at 10 mg/kg, iv after 12 hrs; assay type: ADME, organism-based
[5] = Cytotoxicity against human HCT15 cell aggregates grown on matrigel incubated for 72 hrs by MTS assay; assay type: functional, cell-based; details: HCT-15, 72 h
SW480 [6] = test: Antitumor activity against human SW480 cells xenografted in nu/nu mouse assessed as tumor growth inhibition at 35 mg/kg, po administered every 5 days per week for 3 weeks; assay type: functional, organism-based
[7] = molecular target: T1, Thyroid hormone receptor (Homo sapiens) (UniProt P10827+P10828); test: Inhibition of thyroid hormone receptor in human STF cells at 1 uM after 24 hrs by TCF luciferase promoter reporter assay; assay type: cell-based
[8] = Cytotoxicity against human H296R cell aggregates grown on matrigel incubated for 72 hrs by MTS assay; assay type: functional, cell-based
[9] = Growth inhibition of human H296R cells after 72 hrs by APH assay; assay type: functional, cell-based
Cytochrome P450 2C9 = Cytochrome P450 2C9 (Homo sapiens, UniProt P11712); test: Inhibition of CYP2C9 (unknown origin); assay type: ADME
HCT-15 [10] = test: Growth inhibition of human HCT15 cells after 72 hrs by APH assay; assay type: functional, cell-based; details: HCT-15, 72 h
[11] = Protein binding in plasma (unknown origin); assay type: ADME, cell-free; details: read-out: PPB (converted)
[12] = Cytotoxicity against human colon cancer cell aggregates grown on matrigel incubated for 72 hrs by MTS assay; assay type: functional, cell-based; details: Cancer cell lines
STF [13] = test: Inhibition of Wnt/beta-catenin in human STF cells at 1 uM after 24 hrs by TCF luciferase promoter reporter assay; assay type: cell-based
Plasma = test: Plasma concentration in mouse at 10 mg/kg, iv; assay type: ADME, organism-based; details: in vivo
[14] = Cytotoxicity against human prostate cancer cells after 72 hrs by MTS assay; assay type: functional, cell-based; details: Cancer cell lines
Mus musculus = test: Toxicity in human SW480 cells xenografted nu/nu mouse assessed as change in body weight at 35 mg/kg, po administered every 5 days per week for 3 weeks; assay type: organism-based; details: in vivo
HCT-15 [15] = test: Cytotoxicity against human HCT15 cell aggregates grown on matrigel incubated for 5 to 8 days by MTS assay; assay type: functional, cell-based
H296R = test: Cytotoxicity against human H296R cell aggregates grown on matrigel incubated for 5 to 8 days by MTS assay; assay type: functional, cell-based
Homo sapiens = species on record: Homo sapiens; test: Activity at p-glycoprotein (unknown origin)
HEK293 = test: Induction of apoptosis in HEK293 cells transfected with Wnt3A at 10 uM by propidium iodide staining based flow cytometry; assay type: functional, cell-based; details: Homo sapiens
[16] = molecular target: T2, Retinoic acid receptor (Homo sapiens) (UniProt P13631+P10826+P10276); test: Inhibition of RAR in human STF cells at 1 uM after 24 hrs by TCF luciferase promoter reporter assay; assay type: cell-based
[17] = molecular target: T1, Thyroid hormone receptor (Homo sapiens); test: Inhibition of thyroid hormone receptor in human STF3A cells at 1 uM after 24 hrs by TCF luciferase promoter reporter assay; assay type: cell-based
STF [18] = test: Inhibition of Wnt/beta-catenin in human STF cells assessed as effect on Wnt-3a-CM-induced TopFlash activity incubated for 12 hrs with Wnt-3a-conditioned medium followed by 1 uM compound dosing; assay type: cell-based
Cancer cell lines [19] = test: Induction of cell cycle arrest in human colon cancer cells assessed as accumulation at G1 phase incubated for 72 hrs by flow cytometry; assay type: functional, cell-based
MCF7 = test: Growth inhibition of human MCF7 cells after 72 hrs by APH assay; assay type: functional, cell-based; details: MCF7, 72 h
SW480 [20] = test: Growth inhibition of human SW480 cells after 72 hrs by APH assay; assay type: functional, cell-based; details: SW480, 72 h
[21] = molecular target: Signal transducer and activator of transcription 3 (Homo sapiens) (UniProt P40763); test: Inhibition of STAT3 in human STF3A cells at 1 uM after 24 hrs by TCF luciferase promoter reporter assay; assay type: cell-based
HCT-116 = test: Growth inhibition of human HCT116 cells after 72 hrs by APH assay; assay type: functional, cell-based; details: HCT-116, 72 h
[22] = molecular target: T3, Retinoid X receptor (Homo sapiens) (UniProt P28702+P48443+P19793); test: Inhibition of RXR in human STF3A cells at 1 uM after 24 hrs by TCF luciferase promoter reporter assay; assay type: cell-based
[23] = Terminal half life in mouse plasma at 10 mg/kg, iv; assay type: ADME, organism-based; details: read-out: beta t1/2 (converted)
[24] = molecular target: T3, Retinoid X receptor (Homo sapiens); test: Inhibition of RXR in human STF cells at 1 uM after 24 hrs by TCF luciferase promoter reporter assay; assay type: cell-based
[25] = Cytotoxicity against human ovarian cancer cell aggregates grown on matrigel incubated for 72 hrs by MTS assay; assay type: functional, cell-based; details: Cancer cell lines
[26] = Lipophilicity, log D of the compound; assay type: physicochemical; details: octanol/water
Cancer cell lines [27] = test: Induction of apoptosis in human colon cancer cells incubated for 48 to 72 hrs by annexin V-FITC and propidium iodide staining based flow cytometry; assay type: functional
A549 = test: Growth inhibition of human A549 cells after 72 hrs by APH assay; assay type: functional, cell-based; details: A549, 72 h
STF [28] = test: Inhibition of NFkappaB in human STF cells at 1 uM after 24 hrs by TCF luciferase promoter reporter assay; assay type: cell-based
STF3A [29] = test: Inhibition of NFkappaB in human STF3A cells at 1 uM after 24 hrs by TCF luciferase promoter reporter assay; assay type: cell-based
[30] = molecular target: T2, Retinoic acid receptor (Homo sapiens); test: Inhibition of RAR in human STF3A cells at 1 uM after 24 hrs by TCF luciferase promoter reporter assay; assay type: cell-based
[31] = Cytotoxicity against human breast cancer cell aggregates grown on matrigel incubated for 72 hrs by MTS assay; assay type: functional, cell-based; details: Cancer cell lines
[32] = Solubility of the compound; assay type: physicochemical
[33] = molecular target: Voltage-gated inwardly rectifying potassium channel KCNH2 (Homo sapiens, UniProt Q12809); test: Inhibition of human ERG
STF3A [34] = test: Inhibition of Wnt/beta-catenin in human STF3A cells at 1 uM after 24 hrs by TCF luciferase promoter reporter assay; assay type: cell-based

T3 sequence (P19793 whole entry, looked up): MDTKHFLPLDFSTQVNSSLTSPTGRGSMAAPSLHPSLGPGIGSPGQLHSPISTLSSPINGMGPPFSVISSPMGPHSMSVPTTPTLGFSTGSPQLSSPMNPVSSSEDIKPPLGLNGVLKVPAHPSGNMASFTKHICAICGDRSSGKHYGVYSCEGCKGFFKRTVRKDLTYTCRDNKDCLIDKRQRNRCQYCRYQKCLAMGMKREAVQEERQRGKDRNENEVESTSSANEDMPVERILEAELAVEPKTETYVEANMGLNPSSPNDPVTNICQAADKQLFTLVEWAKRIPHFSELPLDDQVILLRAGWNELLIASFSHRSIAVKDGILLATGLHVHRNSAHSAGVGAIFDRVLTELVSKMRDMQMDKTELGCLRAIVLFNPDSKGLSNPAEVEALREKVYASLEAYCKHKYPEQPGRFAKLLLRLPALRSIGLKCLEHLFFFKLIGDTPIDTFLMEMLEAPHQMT
T3 sequence (P28702 whole entry, looked up): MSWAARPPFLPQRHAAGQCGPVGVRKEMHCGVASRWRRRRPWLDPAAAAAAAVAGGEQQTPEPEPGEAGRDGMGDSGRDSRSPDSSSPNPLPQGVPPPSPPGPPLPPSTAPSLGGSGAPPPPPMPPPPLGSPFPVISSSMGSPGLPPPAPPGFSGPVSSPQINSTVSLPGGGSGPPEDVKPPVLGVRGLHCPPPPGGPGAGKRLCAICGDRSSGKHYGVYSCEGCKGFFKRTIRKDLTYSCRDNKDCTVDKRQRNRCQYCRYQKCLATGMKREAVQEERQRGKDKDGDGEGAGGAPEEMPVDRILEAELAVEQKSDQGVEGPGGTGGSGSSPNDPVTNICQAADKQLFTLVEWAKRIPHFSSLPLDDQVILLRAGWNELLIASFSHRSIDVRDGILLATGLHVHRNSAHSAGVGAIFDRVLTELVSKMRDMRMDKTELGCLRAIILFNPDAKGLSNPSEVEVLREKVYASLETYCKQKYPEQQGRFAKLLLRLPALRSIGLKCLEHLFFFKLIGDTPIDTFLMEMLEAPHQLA
T3 sequence (P48443 whole entry, looked up): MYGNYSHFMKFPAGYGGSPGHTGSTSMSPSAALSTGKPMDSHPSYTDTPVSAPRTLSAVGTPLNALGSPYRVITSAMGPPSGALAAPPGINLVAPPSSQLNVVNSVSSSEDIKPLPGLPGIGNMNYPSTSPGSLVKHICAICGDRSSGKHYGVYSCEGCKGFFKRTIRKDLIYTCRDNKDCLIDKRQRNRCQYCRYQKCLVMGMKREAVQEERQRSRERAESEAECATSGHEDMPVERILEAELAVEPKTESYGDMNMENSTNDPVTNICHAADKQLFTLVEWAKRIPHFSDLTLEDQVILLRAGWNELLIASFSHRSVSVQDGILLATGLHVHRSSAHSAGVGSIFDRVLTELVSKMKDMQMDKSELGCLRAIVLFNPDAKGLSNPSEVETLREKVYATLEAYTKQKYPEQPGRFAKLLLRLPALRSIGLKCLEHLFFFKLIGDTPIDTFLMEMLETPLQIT
T2 sequence (P10276 whole entry, looked up): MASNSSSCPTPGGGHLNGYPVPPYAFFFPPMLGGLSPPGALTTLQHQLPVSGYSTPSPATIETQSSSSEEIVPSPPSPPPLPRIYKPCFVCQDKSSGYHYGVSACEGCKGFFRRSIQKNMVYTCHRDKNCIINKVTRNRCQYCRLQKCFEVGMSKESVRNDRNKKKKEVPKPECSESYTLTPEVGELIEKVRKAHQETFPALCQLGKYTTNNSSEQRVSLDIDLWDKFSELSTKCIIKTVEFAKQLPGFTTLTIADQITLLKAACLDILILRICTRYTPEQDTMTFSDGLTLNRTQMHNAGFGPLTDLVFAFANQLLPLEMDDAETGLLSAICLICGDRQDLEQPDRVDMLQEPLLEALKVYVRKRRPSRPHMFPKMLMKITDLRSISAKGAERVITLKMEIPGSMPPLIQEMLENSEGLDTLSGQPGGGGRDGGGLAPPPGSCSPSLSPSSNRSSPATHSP
T2 sequence (P10826 whole entry, looked up): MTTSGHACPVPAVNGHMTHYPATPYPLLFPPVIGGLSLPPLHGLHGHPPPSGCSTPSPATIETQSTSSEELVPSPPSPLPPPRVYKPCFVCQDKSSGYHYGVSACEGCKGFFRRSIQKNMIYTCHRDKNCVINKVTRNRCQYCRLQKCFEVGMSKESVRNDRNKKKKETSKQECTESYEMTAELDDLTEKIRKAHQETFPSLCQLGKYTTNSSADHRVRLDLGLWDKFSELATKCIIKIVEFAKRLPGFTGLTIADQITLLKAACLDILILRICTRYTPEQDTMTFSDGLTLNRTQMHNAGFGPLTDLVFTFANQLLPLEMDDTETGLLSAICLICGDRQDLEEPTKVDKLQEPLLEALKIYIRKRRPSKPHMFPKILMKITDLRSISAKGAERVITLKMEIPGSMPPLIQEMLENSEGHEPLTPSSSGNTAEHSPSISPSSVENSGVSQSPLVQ
T2 sequence (P13631 whole entry, looked up): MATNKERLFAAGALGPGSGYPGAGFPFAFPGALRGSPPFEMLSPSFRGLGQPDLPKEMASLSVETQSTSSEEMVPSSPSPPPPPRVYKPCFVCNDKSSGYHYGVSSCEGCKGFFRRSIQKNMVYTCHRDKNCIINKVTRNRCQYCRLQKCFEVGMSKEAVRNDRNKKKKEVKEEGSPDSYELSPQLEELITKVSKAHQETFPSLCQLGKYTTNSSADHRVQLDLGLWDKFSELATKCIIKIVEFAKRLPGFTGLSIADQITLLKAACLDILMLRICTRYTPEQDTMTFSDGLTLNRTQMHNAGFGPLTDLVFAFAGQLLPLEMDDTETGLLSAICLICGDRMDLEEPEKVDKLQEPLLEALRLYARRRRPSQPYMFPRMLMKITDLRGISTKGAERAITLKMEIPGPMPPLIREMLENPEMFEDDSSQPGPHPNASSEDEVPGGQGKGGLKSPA
Sequence of Signal transducer and activator of transcription 3 (Homo sapiens) (P40763 whole entry): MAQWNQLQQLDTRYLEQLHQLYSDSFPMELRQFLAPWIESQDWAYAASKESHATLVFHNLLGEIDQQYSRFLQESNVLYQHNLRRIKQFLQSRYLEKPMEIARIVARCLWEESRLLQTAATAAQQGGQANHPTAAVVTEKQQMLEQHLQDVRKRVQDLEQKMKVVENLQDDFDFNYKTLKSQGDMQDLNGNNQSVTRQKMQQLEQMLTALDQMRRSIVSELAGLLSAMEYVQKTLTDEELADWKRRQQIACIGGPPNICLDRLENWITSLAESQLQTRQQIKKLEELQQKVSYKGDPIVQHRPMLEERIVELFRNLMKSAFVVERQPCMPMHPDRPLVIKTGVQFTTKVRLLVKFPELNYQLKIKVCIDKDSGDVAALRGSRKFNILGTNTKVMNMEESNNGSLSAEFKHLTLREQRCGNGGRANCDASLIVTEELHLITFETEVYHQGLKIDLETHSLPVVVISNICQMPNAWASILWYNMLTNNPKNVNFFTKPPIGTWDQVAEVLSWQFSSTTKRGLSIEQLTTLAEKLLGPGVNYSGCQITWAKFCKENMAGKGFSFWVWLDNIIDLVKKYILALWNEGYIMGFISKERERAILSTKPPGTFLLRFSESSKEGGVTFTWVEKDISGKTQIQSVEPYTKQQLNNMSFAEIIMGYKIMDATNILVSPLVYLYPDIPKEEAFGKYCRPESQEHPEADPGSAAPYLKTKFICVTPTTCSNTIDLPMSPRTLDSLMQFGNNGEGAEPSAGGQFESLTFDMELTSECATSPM
Sequence of Cytochrome P450 2C9 (P11712 whole entry): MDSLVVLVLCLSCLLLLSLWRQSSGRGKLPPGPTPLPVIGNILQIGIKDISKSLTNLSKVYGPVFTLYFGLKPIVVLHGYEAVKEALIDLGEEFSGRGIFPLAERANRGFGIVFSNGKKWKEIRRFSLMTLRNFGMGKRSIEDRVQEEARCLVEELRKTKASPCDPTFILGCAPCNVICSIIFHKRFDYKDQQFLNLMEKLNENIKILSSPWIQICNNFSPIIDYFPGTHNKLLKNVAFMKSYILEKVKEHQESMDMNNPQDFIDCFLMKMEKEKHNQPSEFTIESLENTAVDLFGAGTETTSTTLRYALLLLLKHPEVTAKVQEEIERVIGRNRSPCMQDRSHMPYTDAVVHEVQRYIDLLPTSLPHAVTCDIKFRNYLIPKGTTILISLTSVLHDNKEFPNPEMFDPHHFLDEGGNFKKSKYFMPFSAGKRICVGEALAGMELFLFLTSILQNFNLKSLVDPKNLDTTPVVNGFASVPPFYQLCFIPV

SMILES: CC(C)(C)C1CCN(S(=O)(=O)c2ccc3c(c2)C(=NO)c2cc(S(=O)(=O)N4CCC(C(C)(C)C)CC4)ccc2C3=NO)CC1
IC50 [1]: 300 nM
GI50 (HT-29): 190 nM

SMILES: O=S(=O)(c1ccc2c(c1)C(=NO)c1cc(S(=O)(=O)N3CCCCCC3)ccc1C2=NO)N1CCCCCC1
IC50 [1]: 1800 nM
GI50 (HT-29): 140 nM

SMILES: O=S(=O)(c1ccc2c(c1)C(=NO)c1cc(S(=O)(=O)N3CCCCCCCCCCC3)ccc1C2=NO)N1CCCCCCCCCCC1
IC50 [1]: 5000 nM
GI50 (HT-29): 470 nM

SMILES: O=C1c2ccc(S(=O)(=O)N3CCCCCCC3)cc2C(=O)c2cc(S(=O)(=O)N3CCCCCCC3)ccc21
GI50 (HT-29): > 100000 nM

SMILES: O=S(=O)(c1ccc2c(c1)/C(=N\O)c1ccc(S(=O)(=O)N3CC4C5CCC(C5)C4C3)cc1/C2=N/O)N1CC2C3CCC(C3)C2C1 (centres undefined)
GI50 (HT-29): 180 nM

SMILES: O=S(=O)(c1ccc2c(c1)C(=NO)c1cc(S(=O)(=O)N3CCCCC3)ccc1C2=NO)N1CCCCC1
GI50 (HT-29): 3900 nM

SMILES: CCCCC(O)c1[nH]c2cc(C)c(C(=O)O)cc2c1CCc1ccccc1 (centres undefined)
Ki [2]: 29000 nM

SMILES: CCc1cccc2c3c([nH]c12)[C@@](CC)(CC(=O)O)OCC3 [SDX-101]
IC50 [2]: 687000 nM

More lines, main results first:

IC50 [1]: 300 nM
GI50 (HT-29): 30 nM
SMILES: O=S(=O)(c1ccc2c(c1)C(=NO)c1cc(S(=O)(=O)N3CCCCCCC3)ccc1C2=NO)N1CCCCCCC1

IC50 [1]: 160 nM
GI50 (HT-29): 20 nM
SMILES: O=S(=O)(c1ccc2c(c1)C(=NO)c1cc(S(=O)(=O)N3CCCCCCCC3)ccc1C2=NO)N1CCCCCCCC1

GI50 (HT-29): 80 nM
SMILES: CC1(C)CCCN(S(=O)(=O)c2ccc3c(c2)C(=NO)c2cc(S(=O)(=O)N4CCCC(C)(C)C4)ccc2C3=NO)C1

GI50 (HT-29): 60 nM
SMILES: CCCC1CCN(S(=O)(=O)c2ccc3c(c2)C(=NO)c2cc(S(=O)(=O)N4CCC(CCC)CC4)ccc2C3=NO)CC1

IC50 [1]: 300 nM
GI50 (HT-29): 90 nM
SMILES: CC(C)(C)C1CCN(S(=O)(=O)c2ccc3c(c2)/C(=N\O)c2ccc(S(=O)(=O)N4CCC(C(C)(C)C)CC4)cc2/C3=N/O)CC1

GI50 (HT-29): 80 nM
SMILES: O=S(=O)(NC12CC3CC(CC(C3)C1)C2)c1ccc2c(c1)/C(=N\O)c1ccc(S(=O)(=O)NC34CC5CC(CC(C5)C3)C4)cc1/C2=N/O

inhibition [3]: inactive
concentration at 12 h [4]: 1 µM
IC50 [1]: 630 nM
inhibition [7]: inactive
IC50 (Cytochrome P450 2C9): 5620 nM
IC50 (HCT-15 [10]): 30.6 nM
fraction unbound [11]: 0.002
concentration (Plasma): 10 µM
Activity (Homo sapiens): inactive
inhibition [16]: inactive
inhibition [17]: inactive
IC50 (MCF7): 80.8 nM
IC50 (SW480 [20]): 23.3 nM
inhibition [21]: inactive
IC50 (HCT-116): 20.2 nM
inhibition [22]: inactive
half-life [23]: 4 h
IC50 [2]: < 10 nM
inhibition [24]: inactive
logD [26]: 3.3
IC50 (A549): 51.7 nM
inhibition [30]: inactive
solubility [32]: 1 µg/mL (≈ 1.7 µM)
GI50 (HT-29): 90 nM
SMILES: C[C@@H]1C[C@H](C)CN(S(=O)(=O)c2ccc3c(c2)/C(=N\O)c2cc(S(=O)(=O)N4C[C@H](C)C[C@H](C)C4)ccc2/C3=N/O)C1 [TEGAVIVINT]
IC50 [5]: 38.1 nM
TGI (SW480 [6]): Active
IC50 [8]: 34.2 nM
IC50 [9]: 14.2 nM
IC50 [12]: 29.9 nM
inhibition (STF [13]): Active
IC50 [14]: 20.8 nM
Activity (Mus musculus): Non-toxic
growth inhibition (GI) (HCT-15 [15]): Active
growth inhibition (GI) (H296R): Active
Activity (HEK293): Active
Activity (STF [18]): Active
Activity (Cancer cell lines [19]): Dose-dependent effect
IC50 [25]: 530 nM
Activity (Cancer cell lines [27]): Dose-dependent effect
inhibition (STF [28]): Active
inhibition (STF3A [29]): Active
IC50 [31]: 20 nM
inhibition (INH) [33]: Not Active
inhibition (STF3A [34]): Active
